From patent publication US20230303553A1, “CDK6/DYRK2 DUAL-TARGET INHIBITOR, AND PREPARATION METHOD THEREFOR AND USE THEREOF” (JIANGSU TASLY DIYI PHARMACEUTICAL CO., LTD., priority 2021, published 2023)
Like-named read-outs stand apart in the source and are kept apart here.

What was measured:
[1] = test system: leukemia (K562) cell line; assay: MTT cancer cell proliferation, K562; type: cell-based; conditions: Homo sapiens, read-out: IC50 proliferation K-562
[2] = test system: xenografts of human lung cancer A549; assay: Human lung cancer A549 xenografts in nude mice; type: in vivo, BALB/c nude mice; conditions: for relative tumor proliferation rate T/C(%) / tumor growth inhibition rate: A549 xenograft, 21 days
[3] = test system: human breast cancer (MCF-7); assay: MTT cancer cell proliferation, MCF-7; type: cell-based; conditions: read-out: IC50 proliferation MCF-7
[4] = test system: prostate cancer (Du-145) cell line; assay: MTT cancer cell proliferation, Du-145; type: cell-based; conditions: Homo sapiens, read-out: IC50 proliferation Du-145
[5] = test system: gastric cancer (MGC-803) cell line; assay: MTT cancer cell proliferation, MGC-803; type: cell-based; conditions: Homo sapiens, read-out: IC50 proliferation MGC-803
[6] = test system: colon cancer (HT-29) cell line; assay: MTT cancer cell proliferation, HT-29; type: cell-based; conditions: Homo sapiens, read-out: IC50 proliferation HT-29
[7] = test system: xenografts of human prostate cancer PC3; assay: Human prostate cancer PC-3 xenografts in nude mice; type: in vivo, BALB/c nude mice; conditions: for relative tumor proliferation rate T/C(%) / tumor growth inhibition rate: PC-3 xenograft, 28 days
lung cancer (A-549) = assay: MTT cancer cell proliferation, A-549; type: cell-based; conditions: Homo sapiens, read-out: IC50 proliferation A-549
[8] = test system: triple negative breast cancer (MDA-MB-231) cell line; assay: MTT cancer cell proliferation, MDA-MB-231; type: cell-based; conditions: Homo sapiens
[9] = test system: human glioma (U251) cell line; assay: MTT cancer cell proliferation, U251; type: cell-based; conditions: read-out: IC50 proliferation U251
[10] = test system: multiple myeloma (RPMI8226) cell line; assay: MTT cancer cell proliferation, RPMI8226; type: cell-based; conditions: Homo sapiens, read-out: IC50 proliferation RPMI8226
[11] = test system: pancreatic cancer (Panc-1) cell line; assay: MTT cancer cell proliferation, Panc-1; type: cell-based; conditions: Homo sapiens, read-out: IC50 proliferation Panc-1
[12] = test system: non-small cell lung cancer (NCI-H1299) cell line; assay: MTT cancer cell proliferation, NCI-H1299; type: cell-based; conditions: Homo sapiens, read-out: IC50 proliferation NCI-H1299
[13] = test system: liver cancer (HepG2) cell line; assay: MTT cancer cell proliferation, HepG2; type: cell-based; conditions: Homo sapiens, read-out: IC50 proliferation HepG2
[14] = test system: prostate cancer (PC-3) cell line; assay: MTT cancer cell proliferation, PC-3; type: cell-based; conditions: Homo sapiens, read-out: IC50 proliferation PC-3
[15] = test system: ovarian cancer (SK-OV-3) cell line; assay: MTT cancer cell proliferation, SK-OV-3; type: cell-based; conditions: Homo sapiens, read-out: IC50 proliferation SK-OV-3
CDK6 kinase = CDK6 kinase (Homo sapiens (Human), UniProt Q00534); assay: CDK6 kinase activity, Lance Ultra TR-FRET; type: biochemical
Sequence of CDK6 kinase (Q00534 whole entry): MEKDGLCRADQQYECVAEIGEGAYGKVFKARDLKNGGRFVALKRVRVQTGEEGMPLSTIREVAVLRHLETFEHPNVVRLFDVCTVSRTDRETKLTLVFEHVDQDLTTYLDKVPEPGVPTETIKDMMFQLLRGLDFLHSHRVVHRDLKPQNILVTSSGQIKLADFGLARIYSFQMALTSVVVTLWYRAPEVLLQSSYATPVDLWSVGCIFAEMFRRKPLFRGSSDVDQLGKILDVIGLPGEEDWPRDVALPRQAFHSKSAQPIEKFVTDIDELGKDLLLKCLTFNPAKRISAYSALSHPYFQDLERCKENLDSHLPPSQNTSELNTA
Sequence of CDK6 kinase (P24385 whole entry partner): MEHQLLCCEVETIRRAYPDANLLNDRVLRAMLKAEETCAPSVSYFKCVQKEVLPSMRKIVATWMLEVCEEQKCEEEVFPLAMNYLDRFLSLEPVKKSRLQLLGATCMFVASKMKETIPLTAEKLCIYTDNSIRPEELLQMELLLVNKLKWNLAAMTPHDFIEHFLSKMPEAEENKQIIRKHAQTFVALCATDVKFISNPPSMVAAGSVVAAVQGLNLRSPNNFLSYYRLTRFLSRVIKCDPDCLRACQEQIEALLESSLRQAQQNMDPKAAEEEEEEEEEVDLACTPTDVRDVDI

[16] = Pharmacokinetics in SD rats; type: in vivo; conditions: for half-life: read-out: t ½ (converted)
[17] = test system: xenografts of human prostate cancer Du-145; assay: Human prostate cancer Du-145 xenografts in nude mice; type: in vivo, BALB/c nude mice; conditions: for inhibition on tumor growth, in words: FIG. 3
DYRK2 kinase = DYRK2 kinase (Homo sapiens (Human), UniProt Q92630); assay: DYRK2 kinase activity, 33P-ATP / Woodtide substrate; type: biochemical
Sequence of DYRK2 kinase (Q92630 whole entry): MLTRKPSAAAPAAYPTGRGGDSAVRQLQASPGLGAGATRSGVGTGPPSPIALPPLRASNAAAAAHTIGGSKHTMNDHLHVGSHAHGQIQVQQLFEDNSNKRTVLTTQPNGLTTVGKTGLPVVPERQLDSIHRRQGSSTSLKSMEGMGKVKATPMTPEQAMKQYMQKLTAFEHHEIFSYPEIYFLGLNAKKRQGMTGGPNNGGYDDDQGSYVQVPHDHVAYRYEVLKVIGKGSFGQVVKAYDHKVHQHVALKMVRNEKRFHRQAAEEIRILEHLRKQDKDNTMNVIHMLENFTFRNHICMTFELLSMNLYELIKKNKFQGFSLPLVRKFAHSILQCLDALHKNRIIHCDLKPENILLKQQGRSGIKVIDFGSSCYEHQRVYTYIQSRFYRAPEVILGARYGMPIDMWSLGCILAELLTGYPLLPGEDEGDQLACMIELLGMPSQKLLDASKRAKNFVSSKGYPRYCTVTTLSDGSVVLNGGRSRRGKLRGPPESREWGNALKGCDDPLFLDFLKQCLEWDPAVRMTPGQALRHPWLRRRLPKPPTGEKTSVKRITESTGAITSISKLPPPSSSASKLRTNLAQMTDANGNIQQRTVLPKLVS

ICR mice = assay: Acute toxicity in mice, single gavage; type: in vivo
[18] = 150 mg/kg intragastric once every 2 days
[19] = 100 mg/kg intragastric once every day
[20] = 300 mg/kg intragastric once every 2 days
[21] = rat, plasma, iv tail vein 1 mg/kg
[22] = rat, plasma, po gavage 10 mg/kg
[23] = Du-145 xenograft, 200 mg/kg intragastric once every day
[24] = 200 mg/kg intragastric once every day

CC(=O)c1c(C)c2cnc(Nc3ccc(N4CCNCC4)cn3)nc2n(C2CCCC2)c1=O [Palbociclib, reference compound]
IC50 ([1]; K562, MTT, 72 hours): 2.02 µM | relative tumor proliferation rate T/C(%) [2, 18]: 39.6% | tumor growth inhibition rate [2, 18]: 60.4% | IC50 ([3]; MCF7, MTT, 72 hours): 4.49 µM | IC50 ([4]; DU-145, MTT, 72 hours): 4.57 µM | IC50 ([5]; MGC-803, MTT, 72 hours): 4.45 µM | IC50 ([6]; HT-29, MTT, 72 hours): 3.84 µM | relative tumor proliferation rate T/C(%) [7, 19]: 35.5% | tumor growth inhibition rate [7, 19]: 64.5% | IC50 (lung cancer (A-549); A549, MTT, 72 hours): 4.23 µM | IC50 ([8]; MDA-MB-231, read-out: IC50 proliferation MDA-MB-231, MTT, 72 hours): 4.37 µM | IC50 ([9]; U-251, MTT, 72 hours): 4.35 µM | IC50 ([10]; RPMI-8226, MTT, 72 hours): 2.31 µM | IC50 ([11]; PANC-1, MTT, 72 hours): 4.16 µM | IC50 ([12]; NCI-H1299, MTT, 72 hours): 4.2 µM | IC50 ([13]; HepG2, MTT, 72 hours): 4.14 µM | IC50 ([14]; PC-3, MTT, 72 hours): 4.57 µM | IC50 ([15]; SK-OV-3, MTT, 72 hours): 4.01 µM

CCN1CCN(C(=O)c2ccc(Nc3ncc(F)c(-c4ccc5nc(N(C)C)sc5c4)n3)nc2)CC1 [Example 31, (6-((4-(2-(dimethylamino)benzothiazole-6-yl)-5-fluoropyrimidine-2-yl)amino)pyridine-3-yl)(4-ethylpiperazine-1-yl)ketone]
IC50 ([1]; K562, 72 h): 0.917 µM | effect on growth of xenografts, in words ([2]; A549 xenograft in nude mice): significant inhibitory effect | relative tumor proliferation rate T/C(%) [2, 18]: 44.8% | tumor growth inhibition rate [2, 18]: 55.2% | relative tumor proliferation rate T/C(%) [2, 20]: 35.9% | tumor growth inhibition rate [2, 20]: 64.1% | IC50 (CDK6 kinase): 0.018 µM | IC50 ([3]; MCF7, 72 h): 1.89 µM | IC50 ([4]; DU-145, 72 h): 3.3 µM | Pharmacokinetic assessment in words [16]: good metabolism in rats, good absorption and exposure and high bioavailability | F (bioavailability) ([16]; po 10 mg/kg vs iv 1 mg/kg): 55.78% | Cl ([16]; po gavage 10 mg/kg): 1.198 L/h/kg | AUC(0-inf) [16, 21]: 1.5 µg·h/mL | Cmax [16, 21]: 0.974 µg/mL | Tmax [16, 21]: 0.033 h | clearance [16, 21]: 0.669 L/h/kg | half-life [16, 21]: 2.99 h | AUC(0-inf) [16, 22]: 8.38 µg·h/mL | Cmax [16, 22]: 0.674 µg/mL | Tmax [16, 22]: 4 h | half-life [16, 22]: 5.08 h | IC50 ([5]; MGC-803, 72 h): 2.02 µM | effect on growth of xenografts, in words ([17]; Du-145 xenograft in nude mice): significant inhibitory effect | inhibition on tumor growth, in words ([17]; Du-145 xenograft, 100 mg/kg intragastric once every day, groups compared): better inhibition on tumor growth than the positive drug Palbociclib | day on which tumor volume started to be reduced [17, 23]: 31 days | inhibition on tumor growth, in words [17, 23]: significantly inhibited tumor growth | IC50 (DYRK2 kinase): 0.009 µM | IC50 ([6]; HT-29, 72 h): 1.87 µM | effect on growth of xenografts, in words ([7]; PC-3 xenograft in nude mice): significant inhibitory effect | relative tumor proliferation rate T/C(%) [7, 19]: 35.7% | tumor growth inhibition rate [7, 19]: 64.3% | relative tumor proliferation rate T/C(%) [7, 24]: 23.4% | tumor growth inhibition rate [7, 24]: 76.6% | Organ toxicity by HE staining (ICR mice; acute toxicity assay, FIG. 2): no significant toxicity to heart, liver, spleen, lung, kidney and other major organs | Toxicity symptoms / abnormality (ICR mice; single gavage 2500, 5000 or 10000 mg/kg): no abnormality was found within 12 h after administration in all groups | Death of mice (ICR mice; single gavage 2500, 5000 or 10000 mg/kg, 14 days observation): No animals died within 24h of dosing and no animals died after day 14 of dosing | IC50 (lung cancer (A-549); A549, 72 h): 1.64 µM | IC50 ([8]; MDA-MB-231, 72 h, read-out: IC50 proliferation MDA-MB-231): 1.75 µM | IC50 ([9]; U-251, 72 h): 2.15 µM | IC50 ([10]; RPMI-8226, 72 h): 1.08 µM | IC50 ([11]; PANC-1, 72 h): 1.93 µM | IC50 ([12]; NCI-H1299, 72 h): 2.13 µM | IC50 ([13]; HepG2, 72 h): 1.54 µM | IC50 ([14]; PC-3, 72 h): 1.06 µM | IC50 ([15]; SK-OV-3, 72 h): 1.78 µM
